Laboratory results published in patent publication US5130300A, “Method for enhancing growth of mammary parenchyma” (Monsanto Company, priority 1987, dated 1992).

What was measured:
[1] = test system: Quarter-Udders in Pregnant Beef Cows; experiment: Intramammary infusion of hEGF or mEGF, quarter-udder weights and DNA (Examples 1-2); format: in vivo, cross-bred beef cows; details: 25 micrograms per infusion, days 1,3,5,7,9, Freund's emulsion
Description: 12 pregnant, non-lactating, cross-bred beef cows within their last 40-80 days of gestation were housed in a free-stall facility, fed a ration of alfalfa hay and pelleted concentrate, and administered 10 ml of an excipient (Freund's Incomplete Adjuvant emulsified with an equal volume of 0.9% sterile saline) into each quarter-udder by intramammary infusion through the streak canal on days 1, 3, 5, 7 and 9 of this study. Infusions were carried out using a 3.2 centimeter long, approximately 12 gauge, blunt-tipped plastic teat infusion cannula obtained from Jorgensen Laboratories, Loveland, Colo. Because front and rear udder halves are not of equal size, treatment vs. control comparisons were made between laterally opposite quarters, i.e., front right vs. front left and rear right vs. rear left. Treatments were randomly assigned to right or left udder-halves, with the contralateral half serving as its control. […] (the other 6 animals).
Prior to treatment, each animal was teatdipped for 3 consecutive days and each teat was pre-cleaned with 70% ethanol in water on the day of treatment. On day 14 the cows were sacrificed and their mammary glands excised. Each udder (milked out if necessary) was skinned, divided along the median suspensory ligament and then into front right, front left, rear right and rear left udder quarters. Each quarter-udder was ground, a representative 200 gm sample was homogenized with 4 times its volume of water, and the total homogenate volume of each was measured.
To determine dry weight of each quarter-udder, three 10 ml aliquots of a 1:5 diluted homogenate were placed in pre-weighed pans, dried overnight at 60° and then dried and weighed to a consistent value.
To determine dry fat-free tissue weight of each quarter-udder, three 5 ml aliquots of the undiluted homogenate were extracted by the method of Anderson, 41 J. Anim. Sci. 118 (1975) except that samples were placed in pre-weighed 25×150 mm glass centrifuge tubes and extracted overnight with 10 ml ethanol:ether (3:1), then centrifuged (5 min at 500 rpm) and the supernatant aspirated; an additional 10 ml aliquot of ethanol:ether was added for a second extraction; and the sample was dried under nitrogen until a consistent value was obtained.
DNA in each quarter-udder was determined by the method of Burton, 12B Methods in Enzymol. 163-66 (1968) using an assay solution of 15% trichloroacetic acid (TCA) in 2N HCl. In these determinations, aliquots of gland homogenate were diluted 1:5 with water and rehomogenized. Using triplicate 0.25 ml or 0.5 ml aliquots of these homogenates, each aliquot was mixed with 2 ml of the assay solution. After 30 min, the samples were centrifuged for 10 min at 3000 rpm and the resulting pellets were washed with 2 ml of a 10% solution of TCA in distilled water. After recentrifugation, the resulting pellets were disrupted in 2 ml of 0.5N perchloric acid and heated for 30 min at 70° to extract DNA. Samples were centrifuged and 1 ml of each resulting supernatant was placed in a 12×75 mm tube. After addition of 2 ml of a solution of 1.5 g diphenylamine and 1.5 ml H2 SO4 in 100 ml glacial acetic acid (and 0.1 ml of 1.6% aqueous acetaldehyde per 20 ml reagent just prior to use), the samples were vortexed and incubated overnight at 27°. Calf thymus DNA was the standard.

[2] = test system: Quarter-Udders in Pregnant Beef Cows; experiment: Intramammary infusion of hEGF, quarter-udder weights and DNA (Examples 3-6); format: in vivo, cross-bred beef cows; details: for DNA, % Increase, (A-B)/B / DNA, Mean Increase (A-B) / Dry Fat-Free Weight, % Increase, (A-B)/B / Dry Fat-Free Weight, Mean Increase (A-B) / Dry Weight, % Increase, (A-B)/B / Dry Weight, Mean Increase (A-B) / Wet Weight, % Increase, (A-B)/B / Wet Weight, Mean Increase (A-B): B = excipient only
From the text: 24 pregnant, non-lactating, cross-bred beef cows within their last 40-80 days of gestation were randomly divided into 4 treatment groups with 6 animals in each group.

[3] = test system: Quarter-Udders in Pregnant Beef Cows; experiment: Intramammary infusion of hEGF, quarter-udder weights and DNA (Examples 7-8); format: in vivo, cross-bred beef cows
From the text: 24 pregnant, non-lactating, cross-bred beef cows within their last 40-80 days of gestation were randomly divided into 3 treatment groups with 8 animals in each group.

[4] = test system: pregnant Holstein heifers; experiment: Intramammary infusion until parturition, milk production in first 105 days of lactation (Example 13); format: in vivo; details: one animal, 250 micrograms hEGF every third day only until 15 days before parturition
Description: 48 pregnant Holstein heifers within their last 40 days (approximately) of gestation were housed in a free-stall facility, fed a ration of alfalfa hay and pelleted concentrate, and administered 10 ml of an excipient into each quarter-udder by intramammary infusion through the streak canal every third day until parturition with the exception of one animal which was treated with human EGF as described in this Example only until 15 days before parturition. Infusions were carried out using a 3.2 centimeter long, approximately 12 gauge, blunt-tipped plastic teat infusion cannula obtained from Jorgensen Laboratories, Loveland, Colo. […] In each animal, all 4 quarter-udders received the same treatment. Each udder was sprayed with 70% ethanol and wiped dry prior to treatment and dipped with an iodine solution following treatment. At parturition, 4 animals from each treatment group were sacrificed and their mammary glands were removed for analysis. The other 8 animals from each treatment group were milked normally each a.m. and p.m. for the first 105 days of lactation.

[5] = B = opposite quarter, excipient only
[6] = Group 1: total of 125 micrograms hEGF in Freund's emulsion
[7] = Group 2: total of 125 micrograms hEGF in sesame emulsion
[8] = Group 3: total of 12.5 micrograms hEGF in sesame emulsion
[9] = Group 4: total of 1.25 milligrams hEGF in sesame emulsion
[10] = Group 1: total of 125 micrograms hEGF
[11] = Group 1: total of 125 micrograms hEGF, B = excipient only
[12] = Group 2: total of 1.25 milligrams hEGF
[13] = Group 2: total of 1.25 milligrams hEGF, B = excipient only

hEGF: human EGF from G. D. Searle & Co., prepared by expression of recombinant DNA, purity above 90%
DNA, Mean Increase (A-B) [1, 5]: 84.5 mg
Dry Fat-Free Weight, Mean Increase (A-B) [1, 5]: 4.9 g
Dry Weight, % Increase, (A-B)/B [1, 5]: 7.7%
Wet Weight, Mean Increase (A-B) [1, 5]: 32.6 g
DNA, Treatment Mean ([1]; day 14): 794.5 mg
Dry Fat-Free Weight, Treatment Mean ([1]; day 14): 63.2 g
Dry Weight, Treatment Mean ([1]; day 14): 120.0 g
Wet Weight, Treatment Mean ([1]; day 14): 389.9 g
DNA, Avg % Increase/Animal ([1]; vs excipient-only quarter): 14.8%
Dry Fat-Free Weight, Avg % Increase/Animal ([1]; vs excipient-only quarter): 16.1%
Wet Weight, Avg % Increase/Animal ([1]; vs excipient-only quarter): 12.9%
DNA, Avg % Increase/Animal [2, 6]: 23.0%
DNA, Treatment Mean [2, 6]: 723.0 mg
Dry Fat-Free Weight, Avg % Increase/Animal [2, 6]: 8.3%
Dry Fat-Free Weight, Treatment Mean [2, 6]: 60.3 g
Dry Weight, Treatment Mean [2, 6]: 107.2 g
Wet Weight, Treatment Mean [2, 6]: 364.9 g
DNA, % Increase, (A-B)/B [2, 6]: 14.9%
DNA, Mean Increase (A-B) [2, 6]: 94.0 mg
Dry Fat-Free Weight, % Increase, (A-B)/B [2, 6]: 6.2%
Dry Fat-Free Weight, Mean Increase (A-B) [2, 6]: 3.5 g
Dry Weight, % Increase, (A-B)/B [2, 6]: 6.1%
Dry Weight, Mean Increase (A-B) [2, 6]: 6.2 g
Wet Weight, % Increase, (A-B)/B [2, 6]: 4.4%
Wet Weight, Mean Increase (A-B) [2, 6]: 15.4 g
DNA, Avg % Increase/Animal [2, 7]: 70.0%
DNA, Treatment Mean [2, 7]: 995.0 mg
Dry Fat-Free Weight, Avg % Increase/Animal [2, 7]: 15.9%
Dry Fat-Free Weight, Treatment Mean [2, 7]: 71.0 g
Dry Weight, Avg % Increase/Animal [2, 7]: 20.2%
Wet Weight, Avg % Increase/Animal [2, 7]: 10.4%
Wet Weight, Treatment Mean [2, 7]: 370.2 g
DNA, % Increase, (A-B)/B [2, 7]: 41.5%
DNA, Mean Increase (A-B) [2, 7]: 292.0 mg
Dry Fat-Free Weight, % Increase, (A-B)/B [2, 7]: 3.2%
Dry Fat-Free Weight, Mean Increase (A-B) [2, 7]: 2.2 g
Dry Weight, % Increase, (A-B)/B [2, 7]: 9.9%
Dry Weight, Mean Increase (A-B) [2, 7]: 11.0 g
Wet Weight, % Increase, (A-B)/B [2, 7]: 3.9%
Wet Weight, Mean Increase (A-B) [2, 7]: 14.0 g
DNA, Treatment Mean [2, 8]: 867.6 mg
Dry Fat-Free Weight, Avg % Increase/Animal [2, 8]: 16.3%
Dry Fat-Free Weight, Treatment Mean [2, 8]: 79.4 g
Dry Weight, Avg % Increase/Animal [2, 8]: 7.8%
Dry Weight, Treatment Mean [2, 8]: 132.4 g
Wet Weight, Avg % Increase/Animal [2, 8]: 0.6%
Wet Weight, Treatment Mean [2, 8]: 397.8 g
Dry Fat-Free Weight, Mean Increase (A-B) [2, 8]: 6.7 g
Dry Weight, % Increase, (A-B)/B [2, 8]: 4.2%
Dry Weight, Mean Increase (A-B) [2, 8]: 5.4 g
DNA, Avg % Increase/Animal [2, 9]: 1.6%
DNA, Treatment Mean [2, 9]: 733.2 mg
Dry Fat-Free Weight, Treatment Mean [2, 9]: 81.7 g
Dry Weight, Treatment Mean [2, 9]: 131.5 g
Wet Weight, Avg % Increase/Animal [2, 9]: 9.9%
Wet Weight, Treatment Mean [2, 9]: 391.9 g
DNA, % Increase, (A-B)/B [2, 9]: 0.5%
DNA, Mean Increase (A-B) [2, 9]: 4.0 mg
Dry Fat-Free Weight, Mean Increase (A-B) [2, 9]: 6.6 g
Dry Weight, Mean Increase (A-B) [2, 9]: 13.6 g
Wet Weight, Mean Increase (A-B) [2, 9]: 31.7 g
DNA, Treatment Mean [3, 10]: 396.9 mg
Dry Fat-Free Weight, Treatment Mean [3, 10]: 52.8 g
Dry Weight, Treatment Mean [3, 10]: 113.0 g
Wet Weight, Treatment Mean [3, 10]: 363.0 g
DNA, % Increase, (A-B)/B [3, 11]: 10.6%
DNA, Mean Increase (A-B) [3, 11]: 38.0 mg
Dry Fat-Free Weight, % Increase, (A-B)/B [3, 11]: 4.1%
Dry Fat-Free Weight, Mean Increase (A-B) [3, 11]: 2.1 g
Dry Weight, % Increase, (A-B)/B [3, 11]: 3.0%
Dry Weight, Mean Increase (A-B) [3, 11]: 3.3 g
Wet Weight, % Increase, (A-B)/B [3, 11]: 1.5%
DNA, Treatment Mean [3, 12]: 344.0 mg
Dry Fat-Free Weight, Treatment Mean [3, 12]: 63.8 g
Wet Weight, Treatment Mean [3, 12]: 392.5 g
Dry Fat-Free Weight, % Increase, (A-B)/B [3, 13]: 3.9%
Dry Fat-Free Weight, Mean Increase (A-B) [3, 13]: 2.4 g
Dry Weight, % Increase, (A-B)/B [3, 13]: 5.3%
Dry Weight, Mean Increase (A-B) [3, 13]: 6.3 g
Wet Weight, % Increase, (A-B)/B [3, 13]: 1.1%
Wet Weight, Mean Increase (A-B) [3, 13]: 4.3 g
Average milk production more than average of the 8 control cows [4]: 9.6 kg milk/day
Average milk production more than average of the 8 control cows, percent [4]: 34.8%
